Measured values taken from patent publication US9248202B2, “Two-photon probe for detecting copper(II) ion and quantitative estimation of copper(II) ion in human tissue using the same” (Korea University Research and Business Foundation, priority 2014, dated 2016).

Key:
[1] = system: rat brain tissue; test: Quantitative estimation of copper(II) ion in rat brain tissue slices by TPM
Experimental: Slices were prepared from the hippocampi and hypothalami of 2-day-old Sprague-Dawley (SD) rats. Coronal slices were cut into 400 μm thickness using a vibrating-blade microtome in artificial cerebrospinal fluid (ACSF; 138.6 mM NaCl, 3.5 mM KCl, 21 mM NaHCO3, 0.6 mM NaH2PO4, 9.9 mM D-glucose, 1 mM CaCl2 and 3 mM MgCl2). The slices were incubated with 20 μM ACCu2 in ACSF bubbled with 95% O2 and 5% CO2 for 30 minutes at 37° C. The slices were e then washed 3 times with ACSF, transferred to glass-bottomed dishes (MatTek) and observed with spectral confocal and rnultiphoton microscopy.
Because the structure of the brain tissue is heterogeneous, TPM images were acquired at depths of 90-190 μm to visualize the overall copper(II) on distribution.

[2] = Absorption and fluorescence spectra, quantum yield, energy transfer; assay type: physicochemical; conditions: for φ (fluorescence quantum yield): uncertainty ± 15%; for λmax^abs: one-photon absorption; for λmax^t1: one-photon emission
Experimental: Absorption spectra were recorded using the Hewlett-Packard 8453 diode array spectrophotometer and fluorescence spectra were measured using the Amico-Bowman series 2 luminescence spectrometer a 1 cm standard quartz cell. The fluorescence quantum yield was determined using coumarin 307 and rhodamine B as references according to the literature method (J. N. Demas, G. A. Crosby, J. Phys. Chem. 1971, 75, 991).
(hereinafter, ‘ACCu2’), a compound of [Chemical Formula 12] (hereinafter, ‘FL’) and a compound of [Chemical Formula 13] (hereinafter, ‘IR’) in 1,4-dioxane, DMF, ethanol, EtOH/HEPES (9:1) and HEPES buffer ([HEPES]=20 mM, pH 7.0). Excitation wavelength was 420 nm. The solubility of ACCu2 in HEPES buffer ([HEPES]=20 mM, pH 7.0) as determined by the fluorescence method described in the literature (Kim, H. M.; Choo, H. J.; Jung, S. Y.; Ko, Y. G.; Park, W. H.; Jeon, S. J.; Kim, C. H.; Joo, T. H.; Cho, B. R. Chem Bio Chem 2007, 8, 553) was 8.0 μM, which was sufficient to stain cells.
To assess the origin of the spectral changes, the energy transfer efficiency (ETE) was calculated using Equation (1). The ETE was 93.4%.
In Equation (1), AIR and AIR′ are the absorbances of the IR moiety and IR, respectively, and FIR and FIR′ are the emission intensities of the IR moiety and IR, respectively, upon excitation at 373 nm.
The antenna effect in the one-photon (OP) (or TP) mode was 3.0 (or 3.1). The antenna effect was calculated by dividing the area of emission from the FL moiety upon excitation of the IR moiety at 373 nm (or 750 nm in the TP mode) by that collected from the direct excitation of FL at 461 nm (or 880 nm in the […]).

[3] = system: HeLa cells; test: Cell viability, CCK-8 kit; assay type: cell-based, human; conditions: various ACCu2 concentrations
Experimental: HeLa human cervical carcinoma cells were acquired from the ATCC (Manassas, Va., USA). The cells were cultured in DMEM (WelGene, Inc., Seoul, Korea) supplemented with heat-inactivated 10% FBS (WelGene), penicillin (100 units/mL) and streptomycin ([…]), All the cell lines were maintained in a humidified atmosphere of 5% CO2 and 95% air at 37° C. Two days before imaging, the cells were moved and plated onto glass-bottomed dishes (MatTek), For labeling, the growth medium was removed and replaced with FBS-free DMEM. The cells were incubated with 3 μM ACCu2 for 20 minutes at 37° C., washed 3 times with FBS-free DMEM and imaged.
The viability of HeLa cells with the ACCu2 concentration was measured under the incubation condition using the CCK-8 kit (Cell Counting Kit-8, Dojindo, Japan) (FIG. 7). […] Accordingly, it can be seen that the copper(II) ion concentration in living cells can be measured with minimum interference from cytotoxicity.

[4] = pH dependence of Ired/Iblue ratio; assay type: physicochemical; conditions: 3 μM ACCu2, 200 μM copper(II) ion, excitation 365 nm
Excerpt: The excitation wavelength was 365 nm. […] The increase in the Ired/Iblue ratio at pH<6 can be attributed to the protonation of the nitrogen atom in the pyridine moiety as shown in [Chemical Formula 19]. On the other hand, the increase in the Ired/Iblue ratio at pH>7.0 can be attributed to the decreased copper(II) ion concentration due to the formation of Cu(OH)2. This outcome is different from that reported for the existing one-photon probe.

[5] = Selectivity of ACCu2 for copper(II) ion against competing metal ions; conditions: ACCu2 3 μM; Na+, K+, Ca2+, Mg2+ 1 mM; transition metal ions 500 μM; then 200 μM Cu2+; EtOH/HEPES (9/1, pH 7.0)
Experimental: The black bars show the result obtained in the presence of alkali metal and alkaline earth metal ions Na^+, K^+, Ca^2+ and Mg^2+ (1 mM) and transition metal ions Mn^2+, Fe^2+, Co^2+, Ni^2+, Zn^2+, Pd^2+, Cd^2+ and […] in EtOH/HEPES (9/1 v/v, pH 7.0), and the white bars show the result obtained after further addition of 200 μM Cu^2+.

[6] = rat brain tissue, after copper(II) ion (500 μM) and PDTC (200 μM)
[7] = one-photon, excitation 373 nm, EtOH/HEPES (9:1, pH 7.0)

COCCOCCOCCOc1ccc2c(ccc3cc(C(=O)N4CCN(C(=O)c5ccc(CNC(=O)c6cc7cc8ccc(N(C)C)cc8cc7oc6=O)nc5)CC4)c(=O)oc32)c1 [ACCu2]
Ired/Iblue ratio ([1]; ACCu2 (20 μM)-labeled rat brain tissue, untreated): 9.9±0.5 | Ired/Iblue ratio [1, 6]: 6.8±0.6 | free copper ion concentration [1, 6]: 14 ± 1.5 µM | free copper(II) ion concentration ([1]; rat brain tissue, untreated): 0.0 ± 1.1 µM | φ (fluorescence quantum yield) ([2]; 1,4-Dioxane (0.164)): 0.75 | red shift in the emission spectra with solvent polarity ([2]; 1,4-dioxane to H2O): 69 nm | φ (fluorescence quantum yield) ([2]; DMF (0.386)): 0.54 | φ (fluorescence quantum yield) ([2]; EtOH (0.654)): 0.34 | φ (fluorescence quantum yield) ([2]; EtOH/HEPES (9:1)): 0.22 | energy transfer efficiency (ETE) ([2]; FRET from IR to FL moiety, excitation at 373 nm, Equation (1)): 93.4% | φ (fluorescence quantum yield) ([2]; HEPES buffer 20 mM, pH 7.0): 0.0028 | antenna effect ([2]; TP mode, 750 nm vs direct excitation 880 nm): 3.1 | antenna effect ([2]; one-photon (OP) mode, 373 nm vs direct excitation 461 nm): 3.0 | λmax^abs ([2]; 1,4-Dioxane (0.164)): 380/437 | λmax^abs ([2]; DMF (0.386)): 371/456 | λmax^abs ([2]; EtOH (0.654)): 379/460 | λmax^abs ([2]; EtOH/HEPES (9:1)): 379/465 | λmax^abs ([2]; HEPES buffer 20 mM, pH 7.0): 380/453 | λmax^t1 ([2]; 1,4-Dioxane (0.164)): 533 nm | λmax^t1 ([2]; DMF (0.386)): 577 nm | λmax^t1 ([2]; EtOH (0.654)): 578 nm | λmax^t1 ([2]; EtOH/HEPES (9:1)): 585 nm | λmax^t1 ([2]; HEPES buffer 20 mM, pH 7.0): 602 nm | decrease of area of blue emission (400-450 nm) from that of IR [2, 7]: 9.2 fold | increase of area of red emission (550-650 nm) from that of FL [2, 7]: 3.4 fold | decrease of blue emission ([2]; two-photon (TP) mode): 13 fold | increase of red emission ([2]; two-photon (TP) mode): 3.1 fold | viability of HeLa cells [3]: did not affect the viability of HeLa cells | pH at which Ired/Iblue ratio shows a minimum [4]: 6-7 | selectivity for Cu2+ in the presence of competing metal ions [5]: uninterrupted in the presence of the alkali metal, alkaline earth metal or transition metal ions
